From paper PMC6491728, “Application of in vitro Drug Metabolism Studies in Chemical Structure Optimization for the Treatment of Fibrodysplasia Ossificans Progressiva (FOP)” (Frontiers in Pharmacology, 2019)
In brackets after ≈: the same amount, converted by molar mass. Read-outs that look alike come from different tables or passages of the source.

What was measured:
[1] = Metabolite profiling of LDN-193189 in liver microsomal/cytosolic fractions of six species (LC/UV/MS, GSH and KCN trapping); conditions: for metabolite found in rat microsomal incubation with LDN-193189: rat liver microsomes; for Species in which the metabolite of LDN-193189 was observed: LDN-193189 10 μM, 60 min, M mouse, R rat, Rb rabbit, D dog, Mo monkey, H human
Experimental: Total incubation volume per sample was 1 mL. The metabolic reactions were initiated by the addition of cofactors, NADPH-regenerating system and UDPGA, after a pre-incubation at 37°C for 5 min. The incubation mixtures were placed in a shaking water bath at 37°C for 60 min. At the end of the reaction, three volumes of ACN were added, followed by vortexing and centrifugation to remove proteins. The supernatants were transferred to clean tubes and dried completely under a stream of nitrogen at ambient temperature. The dried residues were reconstituted with 500 μL of 25% MeOH in water and transferred into HPLC vials for LC/UV/MS analysis.
Chromatography was accomplished on a Phenomenex Luna, C18 (2) column, 3.0 × 250 mm, 5 μm (Torrance, CA, United States). The column was kept at ambient temperature during sample analysis. The mobile phases were HPLC grade water (solvent A) and ACN (solvent B), both of which contained 0.1% trifluoroacetic acid (TFA). […] The first 4 min of the HPLC flow was diverted to waste prior to evaluation of metabolites.
To facilitate distinction of carbon or heteroatom oxidations, hydrogen/deuterium (H/D) exchange experiments were performed by replacing the aqueous mobile phase (H2O) with D2O while keeping the rest of assay conditions unchanged.
UV absorption spectra from 200 to 400 nm were recorded using a diode array detector. The Thermo Finnigan LTQ XL mass spectrometer was equipped with an electrospray ionization (ESI) interface and operated in positive ionization mode for metabolite profiling and identification. Mass spectra were acquired in full scan (MS) (m/z 200–1000) and data dependent scan (MS^2, MS^3, and MS^4) modes. The ESI spray voltage was +5kV with capillary temperature of 300°C. Sheath gas and auxiliary gas were 80 and 20 arbitrary units, respectively. Activation Q was 0.25 and Activation time 30 ms. The collision energy used to obtain fragments was set at 40 eV.

[2] = Metabolite formation in human and mouse liver subcellular fractions (LC/UV/MS, trapping); format: in vitro ADME; conditions: for Species in which the metabolite of Compound 3 was observed / Species in which the metabolite of Compound 2 was observed: H human, M mouse; for cyanide (KCN) adduct: KCN trapping; for metabolism in cytosol incubation (AO-mediated): liver cytosol; for GSH adduct: microsomal incubation with NADPH and GSH, mouse and human
[3] = Stirring double-sink PAMPA permeability; format: in vitro ADME; conditions: passive diffusion
Experimental: Parallel Artificial Membrane Permeability Assay (PAMPA) was employed to determine the passive diffusion permeability of LDN-193189 and analogs. Stirring double-sink PAMPA method (pION Inc.) was employed to determine the permeability of compounds. The method was performed as described previously ([Sun et al., 2017]).

[4] = In vitro metabolic stability screening assay with rat liver microsomes; format: in vitro ADME; conditions: rat liver microsomes 0.5 mg/mL, 1 μM compound, single time point 15 min, 37°C; read-out: Microsomal Stability t1/2
Experimental: In vitro metabolic stability screening assay was conducted with rat liver microsomes in a 96-well plate, where 1 μM of compound was incubated with 0.5 mg/mL of rat liver microsomal protein. A single time point was collected at 15 min after an incubation at 37°C. […] When the half-life was greater than 30 min, results were presented as >30 min.

[5] = Metabolite profiling in human liver microsomes and cytosol (LC/UV/MS, inhibitors, trapping)
ALK3 = target: T1, ALK3 (Mus musculus, UniProt P36895); assay: BMP4-stimulated SMAD1/5/8 phosphorylation in C2C12 cells (HTRF); format: cell-based; conditions: read-out: BMP4 (mediated by ALK3) IC50
T1 construct: determined in C2C12 cell lines (ATCC; Manassas, VA, United States); host or cells: C2C12
T1 sequence (P36895 24-532): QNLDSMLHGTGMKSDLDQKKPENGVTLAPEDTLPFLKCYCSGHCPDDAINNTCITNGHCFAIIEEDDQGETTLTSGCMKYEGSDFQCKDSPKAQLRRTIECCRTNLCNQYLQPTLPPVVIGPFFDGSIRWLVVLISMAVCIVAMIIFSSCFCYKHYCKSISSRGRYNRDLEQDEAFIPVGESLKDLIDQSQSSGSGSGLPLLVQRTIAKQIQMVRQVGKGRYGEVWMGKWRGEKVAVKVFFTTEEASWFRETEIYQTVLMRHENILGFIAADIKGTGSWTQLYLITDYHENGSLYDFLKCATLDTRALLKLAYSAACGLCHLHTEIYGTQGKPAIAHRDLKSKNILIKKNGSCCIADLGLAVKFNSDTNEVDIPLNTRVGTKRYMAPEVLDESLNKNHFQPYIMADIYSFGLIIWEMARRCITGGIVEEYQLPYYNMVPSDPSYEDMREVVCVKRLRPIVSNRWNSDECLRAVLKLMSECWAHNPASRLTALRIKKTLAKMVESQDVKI
Experimental: (§1) The in vitro activity toward to ALK2 and the selectivity over ALK3 and ALK5 were determined in C2C12 cell lines (ATCC; Manassas, VA, United States) through measuring the phosphorylation level of SMAD1/5/8 (for ALK2 and ALK3) or SMAD2/3 (for ALK5) under the stimulation of BMP6 (mediated by ALK2), BMP4 (mediated by ALK3) and TGFβ (mediated by ALK5), respectively, by using homogeneous time resolved fluorescence (HTRF; a manuscript in preparation).

[6] = Kinetic solubility (μSOL Evolution, pH 7.4 phosphate buffer); format: physicochemical; conditions: pH 7.4, aqueous buffer, kinetic from dmso stock
Experimental: Kinetic solubility was measured using the μSOL Evolution system from pION Inc. (Billerica, MA, United States). Saturation shake-flask solubility method was adapted as previously described ([Avdeef and Berger, 2001]). Briefly, 10 mM DMSO stock was diluted to a final drug concentration of 150 μM in the aqueous solution (pH 7.4, 100 mM phosphate buffer) in duplicates. The solution was kept at room temperature for 6 h for equilibration. After equilibration, precipitates were removed using Tecan Te-Vac vacuum-filter and the compound concentration was measured by UV absorbance (λ: 250–498 nm). Data was compared to a fully solubilized reference solution of the test article at 17 μM in spectroscopically pure n-propanol. The kinetic solubility (μg/mL) was calculated using the μSOL Evolution software.

[7] = parameters: method as in Cuny et al., 2008; conditions: mice, intraperitoneal administration; ref Cuny et al., 2008; cited from earlier work
mouse FOP disease model = test system: mouse FOP disease model; parameters: method as in Yu et al., 2008a; conditions: ref Yu et al., 2008a; cited from earlier work
ALK2 = target: T2, ALK2 (Mus musculus, UniProt P37172); assay: BMP6-stimulated SMAD1/5/8 phosphorylation in C2C12 cells (HTRF); format: cell-based; conditions: for IC50: C2C12 cells, SMAD1/5/8 phosphorylation, HTRF, read-out: BMP6 (mediated by ALK2) IC50
T2 construct: determined in C2C12 cell lines (ATCC; Manassas, VA, United States); host or cells: C2C12
T2 sequence (P37172 21-509): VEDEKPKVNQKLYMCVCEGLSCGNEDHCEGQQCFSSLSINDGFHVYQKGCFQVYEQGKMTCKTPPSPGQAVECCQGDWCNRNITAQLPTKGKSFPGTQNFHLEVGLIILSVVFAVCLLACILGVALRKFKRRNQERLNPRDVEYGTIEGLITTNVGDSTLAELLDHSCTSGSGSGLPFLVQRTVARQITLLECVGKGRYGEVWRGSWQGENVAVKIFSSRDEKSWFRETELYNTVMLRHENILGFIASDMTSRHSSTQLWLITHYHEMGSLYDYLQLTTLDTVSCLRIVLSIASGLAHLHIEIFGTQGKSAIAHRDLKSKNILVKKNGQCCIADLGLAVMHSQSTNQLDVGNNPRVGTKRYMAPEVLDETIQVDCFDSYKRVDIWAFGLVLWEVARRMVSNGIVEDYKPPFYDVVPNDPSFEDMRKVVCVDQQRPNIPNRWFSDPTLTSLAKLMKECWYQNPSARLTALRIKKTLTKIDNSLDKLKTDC
Experimental: as §1

ALK5 = target: T3, ALK5 (Mus musculus, UniProt Q64729); assay: TGFβ-stimulated SMAD2/3 phosphorylation in C2C12 cells (HTRF); format: cell-based
T3 construct: determined in C2C12 cell lines (ATCC; Manassas, VA, United States); host or cells: C2C12
T3 sequence (Q64729 30-503): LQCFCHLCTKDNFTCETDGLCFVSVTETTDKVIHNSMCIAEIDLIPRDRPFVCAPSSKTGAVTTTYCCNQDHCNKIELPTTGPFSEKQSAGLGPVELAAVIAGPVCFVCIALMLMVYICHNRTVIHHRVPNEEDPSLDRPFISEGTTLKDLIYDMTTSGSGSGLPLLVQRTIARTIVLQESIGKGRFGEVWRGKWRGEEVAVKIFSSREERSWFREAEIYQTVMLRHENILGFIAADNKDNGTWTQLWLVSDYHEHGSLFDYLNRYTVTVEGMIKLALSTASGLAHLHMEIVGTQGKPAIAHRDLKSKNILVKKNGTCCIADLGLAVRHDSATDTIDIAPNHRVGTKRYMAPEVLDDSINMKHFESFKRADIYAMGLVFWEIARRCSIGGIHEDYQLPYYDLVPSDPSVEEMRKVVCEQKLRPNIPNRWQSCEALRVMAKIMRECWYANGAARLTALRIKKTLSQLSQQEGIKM
Experimental: as §1

[8] = C2C12 cells, SMAD2/3 phosphorylation, HTRF, read-out: TGFβ (mediated by ALK5) IC50

For `NCCNc1ccc(-c2cnc3c(-c4ccnc5ccccc45)cnn3c2)cc1` [Compound M380], the “metabolite found in rat microsomal incubation with LDN-193189” value [1] was “not found”.
With `O=C1CN(c2ccc(-c3cnc4c(-c5ccnc6ccccc56)cnn4c3)cc2)CCN1` [Compound M420] the “Species in which the metabolite of LDN-193189 was observed” value (from here on “Species … of LDN-193189 was observed”) [1] was “M, R, Rb, D, Mo, H”.
With `Cc1cc(-c2cnn3cc(-c4ccc(OCC(=O)O)nc4)cnc23)c2ccccc2n1` [Compound M411] the “Species in which the metabolite of Compound 3 was observed” value [2] was “H, M”.
In the case of `O=C(O)CNc1ccc(-c2cnc3c(-c4ccnc5ccccc45)cnn3c2)cc1` [Compound M395], the “Species … of LDN-193189 was observed” value [1] is reported as “Rb, D, Mo, H”.
For `Nc1ccc(-c2cnc3c(-c4ccnc5ccccc45)cnn3c2)cc1` [Compound M337], the “Species … of LDN-193189 was observed” value [1] was “M, Rb, D, Mo, H” and the “metabolite found in rat microsomal incubation with LDN-193189” value [1] was “not found”.
With `c1ccc2c(-c3cnn4cc(-c5ccc(N6CCNCC6)cc5)cnc34)ccnc2c1` [LDN-193189, reference compound] the Papp [3] was 320 ×10⁻⁶ cm/s, the half-life at 1 μM [4] was > 30 min and the “formation of M422c on addition of XO inhibitor allopurinol” value ([5]; human liver cytosol, allopurinol 0.1 mM) was “did not result in a change”. The “formation of M422c in the presence of AO inhibitor menadione” value ([5]; human liver cytosol, menadione 1 mM) was “reduced”, the IC50 (ALK3) was 585 nM and the solubility at 6 h [6] was 1.1 µg/mL (≈ 2.71 µM). For the same compound, the “plasma t1/2” value [7] was 96 min, the “efficacy in an animal model of FOP” value (mouse FOP disease model) was “efficacious” and the glucuronide conjugates ([1]; UDPGA 2 mM) was “no glucuronide conjugates observed”. For the same compound, the “GSH trapping of reactive metabolites” value ([1]; liver microsomes from any species, GSH 2 mM) was “no “soft electrophiles” were produced”, the “rank ordering of the metabolic conversion in liver microsomes” value ([1]; liver microsomes, no cytosol added) was “dog > rabbit > mouse > human ∼ monkey > rat” and the “extent of metabolic conversion to M422c, order of species” value ([1]; liver preparations with cytosol) was “monkey > rabbit > human > mouse > rat with no conversion observed in dog liver preparations”.
With `NCCN(CC(=O)O)c1ccc(-c2cnc3c(-c4ccnc5ccccc45)cnn3c2)cc1` [Compound M438] the “Species … of LDN-193189 was observed” value [1] was “M, R, Rb, D, Mo, H”.
With `OCCNc1ccc(-c2cnc3c(-c4ccnc5ccccc45)cnn3c2)cc1` [Compound M381] the “Species … of LDN-193189 was observed” value [1] was “Rb, D, Mo, H”.
In the case of `N#CC1CNC(=O)CN1c1ccc(-c2cnc3c(-c4ccnc5ccccc45)cnn3c2)cc1` (stereo not shown) [Compound M445], the “Species … of LDN-193189 was observed” value [1] is reported as “M, R, Rb, D, Mo, H”.
In the case of `Oc1cc(-c2cnn3cc(-c4ccc(N5CCNCC5)cc4)cnc23)c2ccccc2n1` [Compound M422c], the “Species … of LDN-193189 was observed” value [1] is reported as “all species except dog”.
With `Cc1cc(-c2cnn3cc(-c4ccc(OCCN5CCCCC5)nc4)cnc23)c2ccccc2n1` [Compound 3] the Papp [3] was 1070 ×10⁻⁶ cm/s, the half-life at 1 μM [4] was > 30 min and the aniline formation [2] was “Neither aniline formation nor cytosolic metabolism were observed”. For the same compound, the “cyanide (KCN) adduct” value [2] was “No cyanide adduct or glucuronide conjugate was observed”, the glucuronide conjugate ([2]; UDPGA) was “No cyanide adduct or glucuronide conjugate was observed” and the “metabolism in cytosol incubation (AO-mediated)” value (from here on “metabolism in cytosol incubation”) [2] was “No metabolite formation was observed”. The GSH adduct [2] was “observed only in mouse microsomal incubation”, the IC50 (ALK3) was 4340 nM and the solubility at 6 h [6] was 36.2 µg/mL (≈ 77.9 µM). The IC50 (ALK2) was 466 nM, the “potency against ALK2 mediated signaling compared to LDN-193189” value (ALK2; relative to LDN-193189) was “threefold less potent” and the IC50 (ALK5; [8]) was 2660 nM.
With `C[C@]12CC[C@H]3[C@@H](CCC4=CC(=O)CC[C@@]43C)[C@@H]1CC[C@@H]2O` [testosterone, reference compound] the “metabolite formation of positive control” value ([5]; human liver microsomes, 100 μM, 20 min) was “showed the expected metabolite formation”.
In the case of `CN1CCC[C@H]1c1cccnc1` [Nicotine, reference compound], the “cyanide adducts in KCN trapping” value ([1]; liver microsomes, KCN 0.1 mM) is reported as “produced the expected cyanide derivatives”.
With `Cc1cc(-c2cnn3cc(-c4ccc(OCCO)nc4)cnc23)c2ccccc2n1` [Compound M397] the “Species in which the metabolite of Compound 2 was observed” value [2] was “H, M” and the “Species in which the metabolite of Compound 3 was observed” value [2] was “H, M”.
In the case of `Cc1cc(-c2cnn3cc(-c4ccc(N5CCNCC5)cc4)cnc23)c2ccccc2n1` [Compound 1], the Papp [3] is reported as 437 ×10⁻⁶ cm/s, the half-life at 1 μM [4] is reported as > 30 min and the glucuronide conjugate ([5]; UDPGA-fortified human liver microsomes) is reported as “No glucuronide conjugate was observed”. For the same compound, the “metabolism in cytosol incubation” value ([5]; human liver cytosol) was “No metabolism was observed”, the “extent of metabolism in human liver microsomes” value ([5]; human liver microsomes) was “metabolized moderately” and the “GSH adduct in trapping experiments” value ([5]; human liver microsomes, GSH) was “no GSH or cyanide adduct was detected”. The “cyanide adduct in trapping experiments” value ([5]; human liver microsomes, KCN) was “no GSH or cyanide adduct was detected”, the aniline derivatives ([5]; human microsomal fractions) was “No aniline derivatives were observed” and the solubility at 6 h [6] was 1 µg/mL (≈ 2.38 µM). For the same compound, the IC50 (ALK2) was 120 nM and the IC50 (ALK5) was 987 nM.
In the case of `O=c1cc(-c2cnn3cc(-c4ccc(OCCN5CCCCC5)nc4)cnc23)c2ccccc2[nH]1` [Compound M466d], the “Species in which the metabolite of Compound 2 was observed” value [2] is reported as “H, M”.
In the case of `N#CC1CNCCN1c1ccc(-c2cnc3c(-c4ccnc5ccccc45)cnn3c2)cc1` (stereo not shown) [Compound M431], the “Species … of LDN-193189 was observed” value [1] is reported as “M, R, Rb, D, Mo, H”.
In the case of `c1ccc2c(-c3cnn4cc(-c5ccc(OCCN6CCCCC6)nc5)cnc34)ccnc2c1` [Compound 2], the Papp [3] is reported as 7 ×10⁻⁶ cm/s, the half-life at 1 μM [4] is reported as 22 min and the aniline formation [2] is reported as “not detected”. The “cyanide (KCN) adduct” value [2] was “not detected”, the “metabolism in cytosol incubation” value [2] was “An oxidative metabolite was observed” and the GSH adduct [2] was “observed only in mouse microsomal incubation”. The IC50 (ALK3) was 3270 nM, the solubility at 6 h [6] was < 1 µg/mL and the IC50 (ALK2) was 227 nM. The IC50 (ALK5; [8]) was 27400 nM.
